ChEMBL document CHEMBL5143615, “Novel 2-aryl-4-aryloxyquinoline-based fungistatics for Mucor circinelloides. Biological evaluation of activity, QSAR and docking study” (Bioorg Med Chem Lett, 2022)
Values after ≈ are worked out from the molar mass of the structure shown. Active and inactive are the calls of the source. The rule behind the calls is not given here.

Assays:
[1] = test system: Aspergillus niger; test: Antifungal activity against Aspergillus niger clinical isolate 1 assessed as reduction in fungal growth by broth dilution method; format: functional
[2] = test system: Mucor circinelloides; test: Antifungal activity against Mucor circinelloides M5 strain assessed as reduction in spore germination at 150 ug/ml relative to control; format: functional; set-up: scale not given: the % may be the effect or the level left; details: dose 150 µg/ml
[3] = biological target: T1, Lanosterol 14-alpha demethylase (Mus musculus, UniProt Q8K0C4); test: Inhibition of CYP51 in mouse NIH/3T3 cells assessed as specific enzymatic activity at 100 ug/ml incubated for 48 hrs by ELISA analysis; format: ADME, cell-based; details: nih/3t3, 48 h, dose 100 µg/ml
T1 sequence (Q8K0C4 whole entry): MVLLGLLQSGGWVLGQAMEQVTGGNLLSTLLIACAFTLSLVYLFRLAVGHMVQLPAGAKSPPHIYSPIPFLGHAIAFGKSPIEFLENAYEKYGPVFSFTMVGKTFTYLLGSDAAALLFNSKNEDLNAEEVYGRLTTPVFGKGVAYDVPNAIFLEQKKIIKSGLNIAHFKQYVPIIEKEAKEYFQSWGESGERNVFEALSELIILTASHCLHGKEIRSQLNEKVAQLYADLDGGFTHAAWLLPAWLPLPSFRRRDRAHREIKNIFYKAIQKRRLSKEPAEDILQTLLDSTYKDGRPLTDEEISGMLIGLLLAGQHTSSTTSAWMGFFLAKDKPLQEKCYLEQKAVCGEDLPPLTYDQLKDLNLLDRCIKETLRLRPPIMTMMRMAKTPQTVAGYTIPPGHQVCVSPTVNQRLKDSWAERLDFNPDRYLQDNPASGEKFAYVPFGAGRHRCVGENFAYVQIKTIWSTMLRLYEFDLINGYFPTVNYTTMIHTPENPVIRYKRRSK

[4] = test system: Nannizzia gypsea; test: Antifungal activity against Microsporum gypseum clinical isolate 2 assessed as reduction in fungal growth by broth dilution method; format: functional
[5] = test system: Trichophyton mentagrophytes; test: Antifungal activity against Trichophyton mentagrophytes clinical isolate 2 assessed as reduction in fungal growth by broth dilution method; format: functional
[6] = biological target: T1, Lanosterol 14-alpha demethylase; test: Inhibition of CYP51 in mouse NIH/3T3 cells assessed as specific enzymatic activity at 200 ug/ml incubated for 48 hrs by ELISA analysis; format: ADME, cell-based; details: nih/3t3, 48 h, dose 200 µg/ml
[7] = test system: Mucor circinelloides; test: Antifungal activity against Mucor circinelloides R7B wild type strain assessed as reduction in spore germination at 25 ug/ml relative to control; format: functional; set-up: scale not given: the % may be the effect or the level left; details: dose 25 µg/ml
[8] = biological target: T1, Lanosterol 14-alpha demethylase; test: Inhibition of CYP51 in mouse NIH/3T3 cells assessed as specific enzymatic activity at 50 ug/ml incubated for 48 hrs by ELISA analysis; format: ADME, cell-based; details: nih/3t3, 48 h, dose 50 µg/ml
[9] = Cytotoxicity against mouse NIH/3T3 cells assessed as reduction in cell viability at 50 ug/ml incubated for 48 hrs by MTT assay (reference value: 93.8 +/- 4.9 %); format: toxicity, cell-based, NIH3T3; details: at 50 µg/mL, read-out: Activity
[10] = Cytotoxicity against mouse NIH/3T3 cells assessed as reduction in cell viability at 25 ug/ml incubated for 48 hrs by MTT assay (reference value: 93.8 +/- 4.9 %); format: toxicity, cell-based, NIH3T3; details: at 25 µg/mL, read-out: Activity
[11] = test system: Microsporum canis; test: Antifungal activity against Microsporum canis clinical isolate 2 assessed as reduction in fungal growth by broth dilution method; format: functional
[12] = test system: Nannizzia gypsea; test: Antifungal activity against Microsporum gypseum clinical isolate 1 assessed as reduction in fungal growth by broth dilution method; format: functional
[13] = test system: Aspergillus nidulans; test: Antifungal activity against Aspergillus nidulans clinical isolate 1 assessed as reduction in fungal growth by broth dilution method; format: functional
[14] = Cytotoxicity against mouse NIH/3T3 cells assessed as reduction in cell viability at 150 ug/ml incubated for 48 hrs by MTT assay (reference value: 93.8 +/- 4.9 %); format: toxicity, cell-based, NIH3T3; details: at 150 µg/mL, read-out: Activity
[15] = test system: Mucor circinelloides; test: Antifungal activity against Mucor circinelloides R7B wild type strain assessed as reduction in spore germination at 100 ug/ml relative to control; format: functional; set-up: scale not given: the % may be the effect or the level left; details: dose 100 µg/ml
[16] = test system: Aspergillus nidulans; test: Antifungal activity against Aspergillus nidulans clinical isolate 2 assessed as reduction in fungal growth by broth dilution method; format: functional
[17] = test system: Trichophyton rubrum; test: Antifungal activity against Trichophyton rubrum clinical isolate 2 assessed as reduction in fungal growth by broth dilution method; format: functional
[18] = test system: Mucor circinelloides; test: Antifungal activity against Mucor circinelloides R7B wild type strain assessed as reduction in fungal growth by broth dilution method; format: functional
[19] = test system: Mucor circinelloides; test: Antifungal activity against Mucor circinelloides M5 strain assessed as non-germinated spores and undifferentiated hyphae at 50 ug/ml by microscopic analysis; format: functional, organism-based; details: dose 50.0 µg/ml
[20] = test system: Mucor circinelloides; test: Antifungal activity against Mucor circinelloides M5 strain assessed as reduction in spore germination at 100 ug/ml relative to control; format: functional; set-up: scale not given: the % may be the effect or the level left; details: dose 100 µg/ml
[21] = test system: Epidermophyton floccosum; test: Antifungal activity against Epidermophyton floccosum clinical isolate 1 assessed as reduction in fungal growth by broth dilution method; format: functional
[22] = test system: Trichophyton rubrum; test: Antifungal activity against Trichophyton rubrum clinical isolate 1 assessed as reduction in fungal growth by broth dilution method; format: functional
[23] = Cytotoxicity against mouse NIH/3T3 cells assessed as reduction in cell viability at 100 ug/ml incubated for 48 hrs by MTT assay (reference value: 93.8 +/- 4.9 %); format: toxicity, cell-based, NIH3T3; details: at 100 µg/mL, read-out: Activity
[24] = test system: Trichophyton mentagrophytes; test: Antifungal activity against Trichophyton mentagrophytes clinical isolate 1 assessed as reduction in fungal growth by broth dilution method; format: functional
[25] = test system: Mucor circinelloides; test: Antifungal activity against Mucor circinelloides M5 strain assessed as non-germinated spores at 100 to 150 ug/ml by microscopic analysis; format: functional, organism-based; details: dose 100-150 µg/ml
[26] = Cytotoxicity against mouse NIH/3T3 cells assessed as reduction in cell viability at 200 ug/ml incubated for 48 hrs by MTT assay (reference value: 93.8 +/- 4.9 %); format: toxicity, cell-based, NIH3T3; details: at 200 µg/mL, read-out: Activity
[27] = test system: Mucor circinelloides; test: Antifungal activity against Mucor circinelloides M5 strain assessed as reduction in spore germination at 50 ug/ml relative to control; format: functional; set-up: scale not given: the % may be the effect or the level left; details: dose 50 µg/ml
[28] = test system: Mucor circinelloides; test: Antifungal activity against Mucor circinelloides R7B wild type strain assessed as non-germinated spores at 100 to 150 ug/ml by microscopic analysis; format: functional, organism-based; details: dose 100-150 µg/ml
[29] = test system: Mucor circinelloides; test: Antifungal activity against Mucor circinelloides R7B wild type strain assessed as reduction in spore germination at 150 ug/ml relative to control; format: functional; set-up: scale not given: the % may be the effect or the level left; details: dose 150 µg/ml
[30] = biological target: T1, Lanosterol 14-alpha demethylase; test: Inhibition of CYP51 in mouse NIH/3T3 cells assessed as specific enzymatic activity at 25 ug/ml incubated for 48 hrs by ELISA analysis; format: ADME, cell-based; details: nih/3t3, 48 h, dose 25 µg/ml
[31] = test system: Mucor circinelloides; test: Antifungal activity against Mucor circinelloides M5 strain assessed as complete absence of mycelia at 100 to 150 ug/ml by microscopic analysis; format: functional, organism-based; details: dose 100-150 µg/ml
[32] = test system: Trichophyton mentagrophytes; test: Antifungal activity against Trichophyton mentagrophytes clinical isolate 3 assessed as reduction in fungal growth by broth dilution method; format: functional
[33] = test system: Microsporum canis; test: Antifungal activity against Microsporum canis clinical isolate 1 assessed as reduction in fungal growth by broth dilution method; format: functional
[34] = test system: Mucor circinelloides; test: Antifungal activity against Mucor circinelloides R7B wild type strain assessed as non-germinated spores and undifferentiated hyphae at 50 ug/ml by microscopic analysis; format: functional, organism-based; details: dose 50.0 µg/ml
[35] = test system: Mucor circinelloides; test: Antifungal activity against Mucor circinelloides M5 strain assessed as reduction in spore germination at 25 ug/ml relative to control; format: functional; set-up: scale not given: the % may be the effect or the level left; details: dose 25 µg/ml
[36] = biological target: T1, Lanosterol 14-alpha demethylase; test: Inhibition of CYP51 in mouse NIH/3T3 cells assessed as specific enzymatic activity at 150 ug/ml incubated for 48 hrs by ELISA analysis; format: ADME, cell-based; details: nih/3t3, 48 h, dose 150 µg/ml
[37] = test system: Mucor circinelloides; test: Antifungal activity against Mucor circinelloides M5 strain assessed as reduction in fungal growth by broth dilution method; format: functional
[38] = test system: Mucor circinelloides; test: Antifungal activity against Mucor circinelloides R7B wild type strain assessed as few mycelia with several spores at 50 ug/ml by microscopic analysis; format: functional, organism-based; details: dose 50.0 µg/ml
[39] = test system: Microsporum canis; test: Antifungal activity against Microsporum canis clinical isolate 3 assessed as reduction in fungal growth by broth dilution method; format: functional
[40] = test system: Mucor circinelloides; test: Antifungal activity against Mucor circinelloides R7B wild type strain assessed as reduction in spore germination at 50 ug/ml relative to control; format: functional; set-up: scale not given: the % may be the effect or the level left; details: dose 50 µg/ml
[41] = test system: Mucor circinelloides; test: Antifungal activity against Mucor circinelloides M5 strain assessed as few mycelia with several spores at 50 ug/ml by microscopic analysis; format: functional, organism-based; details: dose 50.0 µg/ml
[42] = test system: Mucor circinelloides; test: Antifungal activity against Mucor circinelloides R7B wild type strain assessed as complete absence of mycelia at 100 to 150 ug/ml by microscopic analysis; format: functional, organism-based; details: dose 100-150 µg/ml

Fc1cc(F)cc(-c2cc(Oc3ccccc3)c3ccccc3n2)c1
MIC [1]: 150 µg/mL (≈ 450 µM)
Activity [2]: 2.5%
Activity [3]: 6.76 U/mg
MIC [4]: 100 µg/mL (≈ 300 µM)
MIC [5]: 125 µg/mL (≈ 375 µM)
Activity [6]: 1.18 U/mg
Activity [7]: 78.5%
Activity [8]: 13.12 U/mg
viability at 48 h, 50 ug/ml [9]: 53.3%
viability at 48 h, 25 ug/ml [10]: 90.7%
MIC [11]: 100 µg/mL (≈ 300 µM)
MIC [12]: 100 µg/mL (≈ 300 µM)
MIC [13]: 150 µg/mL (≈ 450 µM)
viability at 48 h, 150 ug/ml [14]: 15%
Activity [15]: 6.7%
MIC [16]: 150 µg/mL (≈ 450 µM)
MIC [17]: 125 µg/mL (≈ 375 µM)
MIC [18]: 150 µg/mL (≈ 450 µM)
Activity [19]: Active
Activity [20]: 4.5%
MIC [21]: 125 µg/mL (≈ 375 µM)
MIC [22]: 125 µg/mL (≈ 375 µM)
viability at 48 h, 100 ug/ml [23]: 20.4%
MIC [24]: 125 µg/mL (≈ 375 µM)
Activity [25]: Active
viability at 48 h, 200 ug/ml [26]: 12.6%
Activity [27]: 38.5%
Activity [28]: Active
Activity [29]: 1.7%
Activity [30]: 17.96 U/mg
Activity [31]: Active
MIC [32]: 125 µg/mL (≈ 375 µM)
MIC [33]: 100 µg/mL (≈ 300 µM)
Activity [34]: Active
Activity [35]: 74.2%
Activity [36]: 3.28 U/mg
MIC [37]: 100 µg/mL (≈ 300 µM)
Activity [38]: Active
MIC [39]: 100 µg/mL (≈ 300 µM)
Activity [40]: 34.7%
Activity [41]: Active
Activity [42]: Active
